One experiment concerns the target L-selectin. Description: ELISA inhibition of L-selectin binding to immobilized SLe^x. The note with it: average of 2-3 experiments, concentration from assumed average molecular weight. The method, then:
(§1) ELISA inhibition assays were performed as previously reported (O'Connell et al., Proc. Natl. Acad. Sci. USA 93:5883-5887 (1996); Koenig et al., supra, 1997). Sterile 96 well ELISA plates were coated with 200 ng of polyacrylamide-SLe^x (Glycotech; Rockville Md.) by overnight incubation at […] in 100 μl of 50 mM sodium carbonate/bicarbonate buffer, pH 9.5. Plates were blocked for at least 2 hours at 4° C. with 200 μl of 20 mM Hepes, 125 mM NaCl, 2 mM CaCl2, 2 mM MgCl2, 1% protease-free BSA, pH 7.45 (osmolarity 290 milliosmoles) per well. During the blocking step, the selectin-Rg chimeras were separately preincubated at 4° C. with a peroxidase-conjugated goat anti-human IgG secondary antibody (Jackson Immunoresearch Laboratories, Inc.; West Grove Pa.) in assay buffer for approximately 1 hour.
(§2) Final selectin-Rg concentration was 20 nM, and the secondary antibody dilution was 1:1000. […]
(§3) These tubes were preincubated at 4° C. for 30 minutes, then added to ELISA plates, in duplicates, to a well volume of 100 μl. […] The absorbance at 492 nm was determined using SOFTMAX software and a microplate reader (Molecular Devices Inc., Menlo Park Calif.). Prior to curve fitting, the absorbance values were converted into percentages for comparative purposes using the formula: ({(average of duplicates)−(negative control)}/{(positive control)−(negative control)})×100) using the SOFTMAX software.

The next experiment has as its target P-selectin. Briefly: ELISA inhibition of P-selectin binding to immobilized SLe^x. Particulars: average of 2-3 experiments, concentration from assumed average molecular weight. The method, then: as §1, §2, §3
In general terms: ELISA stands for enzyme-linked immunosorbent assay.

The source of these data is patent US6596705B1, “Inhibition of L-selectin and P-selection mediated binding using heparin” (The Regents of the University of California, priority 1998, dated 2003).

P-selectin, sequence (P16109 42-195 limits assumed): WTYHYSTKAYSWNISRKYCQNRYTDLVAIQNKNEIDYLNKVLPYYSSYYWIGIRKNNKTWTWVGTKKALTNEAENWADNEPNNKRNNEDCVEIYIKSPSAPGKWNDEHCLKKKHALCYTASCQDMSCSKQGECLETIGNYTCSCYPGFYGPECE
L-selectin, sequence (P14151 39-318 limits assumed): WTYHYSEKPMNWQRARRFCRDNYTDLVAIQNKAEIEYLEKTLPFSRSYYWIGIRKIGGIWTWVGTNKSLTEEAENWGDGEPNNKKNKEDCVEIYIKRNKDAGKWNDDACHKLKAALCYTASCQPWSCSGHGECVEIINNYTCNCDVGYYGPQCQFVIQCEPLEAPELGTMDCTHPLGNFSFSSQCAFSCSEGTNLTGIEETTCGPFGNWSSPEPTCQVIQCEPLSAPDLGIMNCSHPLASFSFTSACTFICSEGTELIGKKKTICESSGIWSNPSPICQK

As for “Siao2-3 Galβ1-4 (Fucal-3) GlcNAc [Sialyl Lewis^x]”, the results for the half-inhibitory concentration (IC50) on L-selectin and at P-selectin were 600 µM and 520 µM, respectively.
